Assay results taken from ChEMBL document CHEMBL5726952, “Compounds” (2019).

Key:
Assay in all cases: Kinase Screening Assay: Compound IC50 values were determined from 10-point, 1:3 dilution curves starting at either 100 μM or 10 μM with 10 μM ATP, by Reaction Biology Corp. For the whole kinome screen compounds were screened against 340 wild type kinases at a single dose of 1 μM, in duplicate, with 10 μM of ATP by Reaction Biology Corp. The data was averaged and plotted as percentage enzyme …
[1] = molecular target: Platelet-derived growth factor receptor alpha (Homo sapiens, UniProt P16234)
[2] = molecular target: Proto-oncogene tyrosine-protein kinase receptor Ret (Homo sapiens, UniProt P07949)
[3] = molecular target: Mast/stem cell growth factor receptor Kit (Homo sapiens, UniProt P10721)
[4] = molecular target: Tyrosine-protein kinase Blk (Homo sapiens, UniProt P51451)
[5] = molecular target: Tyrosine-protein kinase HCK (Homo sapiens, UniProt P08631)

Measured: IC50

Chain of Platelet-derived growth factor receptor alpha (P16234 whole entry): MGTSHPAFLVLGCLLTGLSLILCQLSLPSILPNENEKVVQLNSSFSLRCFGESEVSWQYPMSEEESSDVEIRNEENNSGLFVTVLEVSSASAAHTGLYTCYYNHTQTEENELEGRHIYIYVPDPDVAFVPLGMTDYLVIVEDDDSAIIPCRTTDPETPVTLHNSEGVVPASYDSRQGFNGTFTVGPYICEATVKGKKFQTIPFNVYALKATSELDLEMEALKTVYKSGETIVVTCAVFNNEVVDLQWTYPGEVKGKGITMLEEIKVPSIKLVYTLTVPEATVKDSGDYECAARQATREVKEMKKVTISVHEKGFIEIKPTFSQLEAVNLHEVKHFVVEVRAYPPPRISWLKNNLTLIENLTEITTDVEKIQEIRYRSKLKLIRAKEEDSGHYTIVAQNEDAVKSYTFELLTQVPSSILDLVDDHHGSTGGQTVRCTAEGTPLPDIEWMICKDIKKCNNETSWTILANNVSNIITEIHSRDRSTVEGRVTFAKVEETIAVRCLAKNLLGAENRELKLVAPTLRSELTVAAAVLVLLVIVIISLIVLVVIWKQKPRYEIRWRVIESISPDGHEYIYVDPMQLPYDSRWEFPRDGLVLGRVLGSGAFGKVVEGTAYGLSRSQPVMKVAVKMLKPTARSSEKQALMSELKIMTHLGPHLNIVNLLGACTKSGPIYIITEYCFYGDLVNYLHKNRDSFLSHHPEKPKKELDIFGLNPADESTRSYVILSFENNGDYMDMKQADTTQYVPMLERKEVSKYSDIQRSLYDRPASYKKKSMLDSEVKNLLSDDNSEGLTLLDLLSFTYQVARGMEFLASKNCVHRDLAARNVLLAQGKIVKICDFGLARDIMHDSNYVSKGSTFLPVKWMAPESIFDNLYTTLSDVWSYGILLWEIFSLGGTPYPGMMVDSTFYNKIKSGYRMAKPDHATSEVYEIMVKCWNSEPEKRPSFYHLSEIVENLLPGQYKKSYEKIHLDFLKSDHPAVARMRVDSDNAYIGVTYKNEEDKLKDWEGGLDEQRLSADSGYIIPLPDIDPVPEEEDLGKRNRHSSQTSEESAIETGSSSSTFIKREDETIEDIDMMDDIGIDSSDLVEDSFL
Chain of Tyrosine-protein kinase HCK (P08631 whole entry): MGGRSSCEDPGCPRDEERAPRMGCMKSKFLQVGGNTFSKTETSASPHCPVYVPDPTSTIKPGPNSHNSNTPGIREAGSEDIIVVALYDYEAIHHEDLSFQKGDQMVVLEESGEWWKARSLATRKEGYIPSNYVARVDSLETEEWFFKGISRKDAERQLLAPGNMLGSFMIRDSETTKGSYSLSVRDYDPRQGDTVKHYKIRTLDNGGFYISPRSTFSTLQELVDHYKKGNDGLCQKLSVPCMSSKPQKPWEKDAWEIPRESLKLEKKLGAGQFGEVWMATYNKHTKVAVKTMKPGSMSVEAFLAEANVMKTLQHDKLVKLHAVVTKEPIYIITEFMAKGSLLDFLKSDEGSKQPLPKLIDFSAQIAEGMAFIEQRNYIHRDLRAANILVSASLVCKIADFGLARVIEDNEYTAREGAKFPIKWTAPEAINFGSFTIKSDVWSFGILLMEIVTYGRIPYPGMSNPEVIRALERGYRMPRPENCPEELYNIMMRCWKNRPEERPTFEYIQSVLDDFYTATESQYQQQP
Chain of Mast/stem cell growth factor receptor Kit (P10721 whole entry): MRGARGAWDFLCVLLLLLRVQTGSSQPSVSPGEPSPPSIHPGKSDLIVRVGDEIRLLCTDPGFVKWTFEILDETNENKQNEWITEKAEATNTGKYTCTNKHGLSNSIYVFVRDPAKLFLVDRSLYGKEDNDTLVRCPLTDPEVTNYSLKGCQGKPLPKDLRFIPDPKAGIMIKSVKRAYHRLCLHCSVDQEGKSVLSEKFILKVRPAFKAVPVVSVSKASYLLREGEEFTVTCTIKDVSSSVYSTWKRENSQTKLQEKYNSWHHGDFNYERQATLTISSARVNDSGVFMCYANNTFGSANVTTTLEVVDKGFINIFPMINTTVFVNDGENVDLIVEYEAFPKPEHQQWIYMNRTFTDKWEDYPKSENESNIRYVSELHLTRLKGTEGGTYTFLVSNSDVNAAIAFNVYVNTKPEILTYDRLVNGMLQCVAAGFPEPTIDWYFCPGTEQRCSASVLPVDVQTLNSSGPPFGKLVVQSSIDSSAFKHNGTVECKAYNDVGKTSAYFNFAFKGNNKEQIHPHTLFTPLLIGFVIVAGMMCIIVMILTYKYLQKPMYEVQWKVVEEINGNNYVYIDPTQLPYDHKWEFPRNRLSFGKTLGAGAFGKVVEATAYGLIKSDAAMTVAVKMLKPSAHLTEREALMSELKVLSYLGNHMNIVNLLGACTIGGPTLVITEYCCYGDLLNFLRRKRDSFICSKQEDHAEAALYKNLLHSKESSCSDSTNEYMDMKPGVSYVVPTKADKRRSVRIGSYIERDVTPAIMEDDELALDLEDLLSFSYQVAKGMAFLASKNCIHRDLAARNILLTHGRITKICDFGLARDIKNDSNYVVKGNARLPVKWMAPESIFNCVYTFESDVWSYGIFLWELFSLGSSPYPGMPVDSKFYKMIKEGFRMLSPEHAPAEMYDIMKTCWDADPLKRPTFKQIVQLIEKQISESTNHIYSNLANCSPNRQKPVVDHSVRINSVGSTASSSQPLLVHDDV
Chain of Tyrosine-protein kinase Blk (P51451 whole entry): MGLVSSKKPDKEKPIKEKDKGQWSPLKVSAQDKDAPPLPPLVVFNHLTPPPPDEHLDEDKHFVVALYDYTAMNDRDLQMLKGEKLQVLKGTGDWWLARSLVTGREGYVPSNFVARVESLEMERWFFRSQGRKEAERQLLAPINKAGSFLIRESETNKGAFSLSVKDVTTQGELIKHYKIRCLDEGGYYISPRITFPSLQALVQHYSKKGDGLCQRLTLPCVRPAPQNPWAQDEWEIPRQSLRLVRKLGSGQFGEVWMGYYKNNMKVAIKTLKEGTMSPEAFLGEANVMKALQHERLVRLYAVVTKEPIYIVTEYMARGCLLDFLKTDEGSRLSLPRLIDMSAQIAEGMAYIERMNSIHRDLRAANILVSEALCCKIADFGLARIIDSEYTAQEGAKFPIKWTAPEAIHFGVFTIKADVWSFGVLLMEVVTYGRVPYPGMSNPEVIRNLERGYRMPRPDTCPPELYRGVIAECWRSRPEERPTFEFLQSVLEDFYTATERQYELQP
Chain of Proto-oncogene tyrosine-protein kinase receptor Ret (P07949 whole entry): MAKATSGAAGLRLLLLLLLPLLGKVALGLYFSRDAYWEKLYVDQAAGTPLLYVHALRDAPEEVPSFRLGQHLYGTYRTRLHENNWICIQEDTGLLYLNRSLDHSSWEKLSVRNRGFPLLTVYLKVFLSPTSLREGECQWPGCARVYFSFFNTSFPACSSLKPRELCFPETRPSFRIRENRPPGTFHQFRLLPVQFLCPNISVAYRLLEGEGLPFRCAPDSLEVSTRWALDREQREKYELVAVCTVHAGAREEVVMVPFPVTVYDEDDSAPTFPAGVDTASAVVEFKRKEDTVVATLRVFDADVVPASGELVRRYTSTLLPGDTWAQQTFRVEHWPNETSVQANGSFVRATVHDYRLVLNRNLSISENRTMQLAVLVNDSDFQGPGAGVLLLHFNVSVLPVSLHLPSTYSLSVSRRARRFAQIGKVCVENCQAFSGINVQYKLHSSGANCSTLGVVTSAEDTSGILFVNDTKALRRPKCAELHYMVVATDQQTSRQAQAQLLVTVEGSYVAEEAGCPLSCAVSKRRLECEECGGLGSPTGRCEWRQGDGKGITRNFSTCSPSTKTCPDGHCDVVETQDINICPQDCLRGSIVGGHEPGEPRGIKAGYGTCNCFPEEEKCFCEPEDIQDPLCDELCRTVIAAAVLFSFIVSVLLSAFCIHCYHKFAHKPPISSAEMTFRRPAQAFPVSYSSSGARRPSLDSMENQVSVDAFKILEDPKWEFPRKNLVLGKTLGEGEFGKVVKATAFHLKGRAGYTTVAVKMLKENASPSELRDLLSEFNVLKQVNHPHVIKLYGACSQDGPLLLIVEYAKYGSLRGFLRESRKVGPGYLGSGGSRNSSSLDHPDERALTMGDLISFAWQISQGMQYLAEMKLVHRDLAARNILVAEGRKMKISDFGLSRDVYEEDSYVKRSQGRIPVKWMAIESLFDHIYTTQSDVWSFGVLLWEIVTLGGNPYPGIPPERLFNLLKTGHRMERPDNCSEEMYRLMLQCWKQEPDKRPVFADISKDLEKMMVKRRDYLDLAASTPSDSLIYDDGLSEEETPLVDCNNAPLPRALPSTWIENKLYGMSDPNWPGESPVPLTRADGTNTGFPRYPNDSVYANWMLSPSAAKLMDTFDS

Cc1ccc(-c2nn(CCN3CCC(N(C)C)CC3)c3ncnc(N)c23)cc1
> 1000 nM: all assays above
